Experimental data reported in patent US4001325A, “α-Chloroacetanilide selective herbicides” (Diamond Shamrock Corporation, priority 1973, dated 1977).

Legend:
[1] = system: Yellow Foxtail; test: Example 17 selective herbicidal activity in corn crop, weed kill; format: in vivo, Setaria lutescens; conditions: Setaria, 3-4 weeks after planting
From the text: (§1) This example illustrates the selective herbicidal activity of two of the presently preferred compounds of this invention against various weed species in a corn crop.
(§2) Plots of light sandy soil, cleared of all weeds, are uniformly treated with aqueous dispersions prepared from an emulsifiable concentrate containing 2- 4 pounds of active ingredient per gallon. Diluted aqueous dispersions are applied as surface treatments at 2.0, 1.0, 0.5, and 0.25 pound of active ingredient per acre (lb/A).
(§3) The treated test plots are sown to corn and with seeds of the following weed species:
(§4) Three to four weeks after planting, the degree of damage to both the corn stands and the weed plants is assessed from a rating of 0% (no injury) to 100% (complete destruction).

[2] = system: Corn; test: Example 18 phytotoxic effects on crop stands in different soils; format: in vivo, field corn
Method: (§5) To further illustrate the herbicidal activity of compounds of this invention in different types of soil as would be encountered in different crop growing localities, a preemergence herbicide test is conducted generally as outlined previously herein. Two light sandy soils are employed containing 0.7% and 1.8% organic matter (O.M.), respectively, along with two loam-type, heavier soils containing either 2.0% or 5-5.5% organic matter (O.M.).
(§6) The test plots are all sprayed uniformly with formulations of the test compounds providing 2.0, 1.0, 0.5, and 0.25 pound of active chemical per acre (lb/A).
(§7) Prior to treatment, the soil plots are sown to field corn, soybean, and grain sorghum crops and seeds of barnyard-grass and yellow foxtail.
(§8) Three weeks after planting, the percent control of plant growth is rated from 0% (no injury) to 100% (total destruction). The results obtained are as follows:
(§9) Phytotoxic effects on the crop stands are similarly rated with the following results: […]

[3] = system: Cotton; test: Field preemergence test, phytotoxic effects on crop; format: in vivo, cotton (Coker 413)
From the text: (§10) Test plots of fertilized, light sandy soil containing 0.7% organic matter are sprayed uniformly with aqueous suspensions prepared from emulsifiable concentrates containing 12%, by weight, of the test chemicals diluted to provide dosage rates of the test compounds corresponding to 2.0, 1.0, 0.5, and 0.25 pound per acre (lb/A). The plots are then sown with seeds of the following crop plants: sweet corn, cotton (Coker 413) and soybeans, var. Davis. Seeds of the following weed plants are planted: redroot pigweed, prickly sida, common lambsquarter, goosegrass and giant foxtail.
(§11) Three to four weeks after planting, percent control (plant kill) of the test plants is estimated, from a rating of 0 which denotes no injury to the plant up to 100 which denotes complete destruction. The herbicidal action of the test compounds obtained on the weed species is as follows:
(§12) Phytotoxic effects observed on the crop species is estimated with results as follows: […]

[4] = system: Soybeans; test: as above; format: in vivo, var. Davis
From the text: as §10, §11, §12

[5] = system: Velvetleaf; test: Example 17 selective herbicidal activity in corn crop, weed kill; format: in vivo; conditions: Abutilon theophrasti, 3-4 weeks after planting
From the text: as §1, §2, §3, §4

[6] = system: Fall Panicum; test: as above; format: in vivo; conditions: Panicum dichotomiflorum, 3-4 weeks after planting
From the text: as §1, §2, §3, §4

[7] = system: Johnsongrass; test: as above; format: in vivo; conditions: Sorghum halepense, 3-4 weeks after planting
From the text: as §1, §2, §3, §4

[8] = system: Yellow Foxtail; test: Example 18 preemergence herbicide test in different soils, % control; format: in vivo; conditions: three weeks
Method: as §5, §6, §7
Three weeks after planting, the percent control of plant growth is rated from 0% (no injury) to 100% (total destruction).

[9] = system: Soybeans; test: Example 18 phytotoxic effects on crop stands in different soils; format: in vivo, soybean
Method: as §5, §6, §7, §8, §9

[10] = system: Giant Foxtail; test: Field preemergence test, weed control; format: in vivo; conditions: 3-4 weeks after planting
From the text: as §10
(§13) Three to four weeks after planting, percent control (plant kill) of the test plants is estimated, from a rating of 0 which denotes no injury to the plant up to 100 which denotes complete destruction. The herbicidal action of the test compounds obtained on the weed species is as follows: […]

[11] = system: Redroot Pigweed; test: Field preemergence test, weed control; format: in vivo; conditions: 3-4 weeks after planting
From the text: as §10, §13

[12] = system: Common Lambsquarter; test: Field preemergence test, weed control; format: in vivo; conditions: 3-4 weeks after planting
From the text: as §10, §13

[13] = 0.5 lb/A, Heavy Soil 5-5.5% O.M.
[14] = 0.5 lb/A, Medium Soil 2.0% O.M.
[15] = 1.0 lb/A, Heavy Soil 5-5.5% O.M.
[16] = 1.0 lb/A, Medium Soil 2.0% O.M.
[17] = 2.0 lb/A, Heavy Soil 5-5.5% O.M.
[18] = 2.0 lb/A, Medium Soil 2.0% O.M.

C#CCN(C(=O)CCl)c1c(CC)cccc1CC [Example 9, 2-Chloro-2',6'-diethyl-N-propargylacetanilide]
mortality at 280.212 g/ha ([1]; 0.25 lb/A): 80% | mortality at 560.425 g/ha ([1]; 0.5 lb/A): 95% | mortality at 1120.85 g/ha ([1]; 1.0 lb/A): 100% | mortality at 2241.7 g/ha ([1]; 2.0 lb/A): 100% | % Phytotoxicity, Corn [2, 13]: 0% | % Phytotoxicity, Corn [2, 14]: 0% | % Phytotoxicity, Corn ([2]; 0.5 lb/A, Sand 0.7% O.M.): 0% | % Phytotoxicity, Corn ([2]; 0.5 lb/A, Sand 1.8% O.M.): 0% | % Phytotoxicity, Corn [2, 15]: 0% | % Phytotoxicity, Corn [2, 16]: 0% | % Phytotoxicity, Corn ([2]; 1.0 lb/A, Sand 0.7% O.M.): 0% | % Phytotoxicity, Corn ([2]; 1.0 lb/A, Sand 1.8% O.M.): 0% | % Phytotoxicity, Corn [2, 17]: 10% | % Phytotoxicity, Corn [2, 18]: 10% | % Phytotoxicity, Corn ([2]; 2.0 lb/A, Sand 0.7% O.M.): 0% | % Phytotoxicity, Corn ([2]; 2.0 lb/A, Sand 1.8% O.M.): 0% | % Crop Kill, Cotton ([3]; 1.0 lb/A): 0% | % Crop Kill, Cotton ([3]; 2.0 lb/A): 3% | % Crop Kill, Soybeans ([4]; 1.0 lb/A): 0% | % Crop Kill, Soybeans ([4]; 2.0 lb/A): 0% | mortality at 280.212 g/ha ([5]; 0.25 lb/A): 0% | mortality at 560.425 g/ha ([5]; 0.5 lb/A): 0% | mortality at 1120.85 g/ha ([5]; 1.0 lb/A): 6% | mortality at 2241.7 g/ha ([5]; 2.0 lb/A): 18% | mortality at 280.212 g/ha ([6]; 0.25 lb/A): 73% | mortality at 560.425 g/ha ([6]; 0.5 lb/A): 88% | mortality at 1120.85 g/ha ([6]; 1.0 lb/A): 95% | mortality at 2241.7 g/ha ([6]; 2.0 lb/A): 100% | mortality at 280.212 g/ha ([7]; 0.25 lb/A): 0% | mortality at 560.425 g/ha ([7]; 0.5 lb/A): 37% | mortality at 1120.85 g/ha ([7]; 1.0 lb/A): 80% | mortality at 2241.7 g/ha ([7]; 2.0 lb/A): 100% | % Control, Yellow Foxtail [8, 13]: 90% | % Control, Yellow Foxtail [8, 14]: 90% | % Control, Yellow Foxtail ([8]; 0.5 lb/A, Sand 0.7% O.M.): 50% | % Control, Yellow Foxtail ([8]; 0.5 lb/A, Sand 1.8% O.M.): 85% | % Control, Yellow Foxtail [8, 15]: 100% | % Control, Yellow Foxtail [8, 16]: 100% | % Control, Yellow Foxtail ([8]; 1.0 lb/A, Sand 0.7% O.M.): 70% | % Control, Yellow Foxtail ([8]; 1.0 lb/A, Sand 1.8% O.M.): 80% | % Control, Yellow Foxtail [8, 17]: 100% | % Control, Yellow Foxtail [8, 18]: 100% | % Control, Yellow Foxtail ([8]; 2.0 lb/A, Sand 0.7% O.M.): 100% | % Control, Yellow Foxtail ([8]; 2.0 lb/A, Sand 1.8% O.M.): 100% | % Phytotoxicity, Soybeans [9, 13]: 0% | % Phytotoxicity, Soybeans [9, 14]: 0% | % Phytotoxicity, Soybeans ([9]; 0.5 lb/A, Sand 0.7% O.M.): 0% | % Phytotoxicity, Soybeans ([9]; 0.5 lb/A, Sand 1.8% O.M.): 0% | % Phytotoxicity, Soybeans [9, 15]: 0% | % Phytotoxicity, Soybeans [9, 16]: 0% | % Phytotoxicity, Soybeans ([9]; 1.0 lb/A, Sand 0.7% O.M.): 0% | % Phytotoxicity, Soybeans ([9]; 1.0 lb/A, Sand 1.8% O.M.): 0% | % Phytotoxicity, Soybeans [9, 17]: 0% | % Phytotoxicity, Soybeans [9, 18]: 0% | % Phytotoxicity, Soybeans ([9]; 2.0 lb/A, Sand 0.7% O.M.): 0% | % Phytotoxicity, Soybeans ([9]; 2.0 lb/A, Sand 1.8% O.M.): 0% | % Weed Control, Giant Foxtail ([10]; 0.25 lb/A): 42% | % Weed Control, Giant Foxtail ([10]; 0.5 lb/A): 85% | % Weed Control, Giant Foxtail ([10]; 1.0 lb/A): 97% | % Weed Control, Giant Foxtail ([10]; 2.0 lb/A): 100% | % Weed Control, Redroot Pigweed ([11]; 0.25 lb/A): 75% | % Weed Control, Redroot Pigweed ([11]; 0.5 lb/A): 93% | % Weed Control, Redroot Pigweed ([11]; 1.0 lb/A): 100% | % Weed Control, Redroot Pigweed ([11]; 2.0 lb/A): 100% | % Weed Control, Common Lambsquarter ([12]; 0.25 lb/A): 95% | % Weed Control, Common Lambsquarter ([12]; 0.5 lb/A): 100% | % Weed Control, Common Lambsquarter ([12]; 1.0 lb/A): 100% | % Weed Control, Common Lambsquarter ([12]; 2.0 lb/A): 100%
